Reference: ChEMBL document CHEMBL4184134, “Daryamide Analogues from a Marine-Derived Streptomyces species” (J Nat Prod, 2017)
Calls of active or inactive are those of the source.

Key:
[1] = tested on: Pseudomonas aeruginosa; assay: Antimicrobial activity against Pseudomonas aeruginosa incubated for 24 hrs by paper disk method; assay type: functional, organism-based
[2] = tested on: Bacillus subtilis; assay: Antimicrobial activity against Bacillus subtilis at incubated for 24 hrs by paper disk method; assay type: functional, organism-based
[3] = species: Homo sapiens; assay: Cytotoxicity against human HCC366 cells assessed as reduction in cell viability at 1 nM to 50 uM incubated for 96 hrs by Cell-titer Glo reagent based assay; assay type: functional
[4] = tested on: A549; assay: Cytotoxicity against human A549 cells assessed as reduction in cell viability at 1 nM to 50 uM incubated for 96 hrs by Cell-titer Glo reagent based assay; assay type: functional
[5] = tested on: HCC44; assay: Cytotoxicity against human HCC44 cells assessed as reduction in cell viability at 1 nM to 50 uM incubated for 96 hrs by Cell-titer Glo reagent based assay; assay type: functional
[6] = tested on: NCI-H2122; assay: Cytotoxicity against human NCI-H2122 cells assessed as reduction in cell viability at 1 nM to 50 uM incubated for 96 hrs by Cell-titer Glo reagent based assay; assay type: functional

Measured: Activity

CC(C)C/C=C/C=C/C(=O)NC1=C[C@@](O)(CCC(N)=O)[C@H]2O[C@H]2[C@@H]1O
inactive: all assays above

CC(C)/C=C/C=C/C(=O)NC1=C[C@@](O)(CCC(N)=O)[C@H]2O[C@H]2[C@@H]1O
inactive: all assays above

CCC/C=C/C=C/C(=O)NC1=C[C@@](O)(CCC(N)=O)[C@H]2O[C@H]2[C@@H]1O
inactive: all assays above

CC(C)C/C=C/C=C/C(=O)N[C@H]1CCCNC1=O
inactive: all assays above

CC(C)C/C=C/C=C/C(=O)N(CCO)c1cc(CCC(=O)O)c(O)cc1O
inactive: all assays above
